Data taken from article PMC11833279, “Versatile Features of an Antibody Mimetic Peptide and Its Variants” (Journal of Peptide Science, 2025).
Read-outs that look alike come from different tables or passages of the source. Non-standard residues stand in square brackets, D forms with d. Residues, ends and D or L forms follow the SMILES beside them. *: point of attachment. Biotin = O=C1N[C@H]2[C@H](CS[C@H]2CCCCC(=O)*)N1; Ahx = NCCCCCC(=O)O; βAla = NCCC(=O)O

Key:
HIV‐1NL4–3 [1] = type: cell-based; settings: CEMx174 SEAP indicator cells, HIV‐1NL4–3, SEAP activity three days after infection; mean and standard error of at least three independent experiments; read-out: HIV‐1 neutralizing activity IC50
Method: The plasmid HIV‐1pBRNL4–3, kindly provided by F. Kirchhoff, Ulm, was propagated in XL‐1 Blue competent cells (Stratagene – an Agilent Technologies Division, Waldbronn, Germany) and transfected into 293 T cells using FuGENE HD (Roche, Mannheim, Germany). After 48 h, supernatants were cleared by filtering through 0.22 μm Millex‐GS units (Millipore, Schwalbach, Germany) and stored in aliquots at −80°C.
The indicator cell line CEMx174, which was kindly provided by R. E. Means and R. C. Desrosiers, contained the gene for the secreted alkaline phosphatase (SEAP) under the control of the simian immunodeficiency virus long terminal repeat. Three days after HIV‐1NL4–3 infection, cell culture supernatants were removed and analyzed for SEAP activity using the Phospha‐Light kit (Life Technologies, Darmstadt, Germany) according to the manufacturer's recommendations. Data represent mean and standard error of at least three independently performed experiments.

HIV‐1NL4–3 [2] = settings: HIV‐1 neutralization; read-out: HIV‐1 neutralizing activity IC50; cited from earlier work
Excerpt: Addressing the significance of the disulfide bridge in H1H3, a linear variant (H1H3s) was generated, in which the two cysteine residues were replaced by serine (see Table 1 for peptide sequences).

GALV‐RV = type: cell-based; settings: read-out: GALV‐RV transduction enhancing effect EC50; Jurkat cells, GFP‐expressing GALV‐RV, peptide‐virus mix incubated 10 min, GFP by flow cytometry 2 days posttransduction; three independent experiments ± SD
Method: For the generation of GFP‐expressing γ‐retroviral vector pseudotyped with the glycoprotein of gibbon ape leukemia virus (GALV‐RV), 800,000 HEK293T cells were initially seeded and cotransfected as previously described using following plasmids:GFP‐expressing Murine leukemia virus (MLV) vector E200 pcmE26‐gfp (1.15 μg), E848 pCsGPpA‐ed (0.95 μg), and GALV glycoprotein (0.4 μg).
For the determination of transduction enhancement of GFP‐expressing GALV‐RV, 50,000 Jurkat cells (ATCC, TIB‐152) were seeded in 180 μL RPMI medium (Gibco, 11875093) supplemented with 10% inactivated fetal calf serum (FCS, Gibco, 10437028), 2 mM L‐glutamine (PAN‐Biotech, P04–80050), 100 U/mL penicillin, and 100 μg/mL streptomycin (PAN‐Biotech, P06–07050). Different concentrations of peptides were 1:1 (v/v) mixed with GALV‐RV (1280 dilution on cells) and incubated for 10 min. Subsequently, 20 μL of the virus‐peptide mix was added to cells, and 2 days posttransduction, GFP‐expression was analyzed by flow cytometry using CytoFlex (Beckmann Coulter), and the evaluation was carried out with FlowJo™ (Version 10.8.1).

Row | Compound | IC50 (HIV‐1NL4–3 [1]) | further results
1 | CC[C@H](C)[C@H](NC(=O)[C@@H](NC(=O)[C@H](Cc1ccccc1)NC(=O)[C@H](CC(N)=O)NC(=O)[C@H](CO)NC(=O)[C@H](Cc1ccccc1)NC(=O)[C@H](CCCNC(=N)N)NC(=O)[C@H](Cc1ccc(O)cc1)NC(=O)CNC(C)=O)C(C)C)C(=O)N[C@@H](Cc1c[nH]cn1)C(=O)N[C@@H](Cc1c[nH]c2ccccc12)C(=O)NCC(=O)NCCC(=O)NCC(=O)NCCCCCC(=O)NCC(=O)N[C@@H](CCCCNC(=O)CCCC[C@@H]1SC[C@@H]2NC(=O)N[C@@H]21)C(=O)NCC(=O)NCCCCCC(=O)N[C@@H](CO)C(=O)N[C@H](C(=O)NCC(=O)N1CCC[C@H]1C(=O)N[C@@H](Cc1ccc(O)cc1)C(=O)N[C@@H](CO)C(=O)N[C@@H](Cc1c[nH]c2ccccc12)C(=O)N[C@@H](CC(=O)O)C(=O)N[C@@H](CC(=O)O)C(=O)N[C@@H](CO)C(=O)N1CCC[C@H]1C(=O)N[C@@H](CCC(N)=O)C(=O)N[C@@H](CC(=O)O)C(=O)N[C@@H](CC(N)=O)C(=O)N[C@@H](Cc1ccc(O)cc1)C(=O)N[C@@H](CCSC)C(=O)N[C@@H](CC(=O)O)C(=O)N[C@@H](CO)C(N)=O)C(C)C [Peptide H1H3s] (Ac-GYRFSNFVIHWG[βAla]G[Ahx]GK(Biotin)G[Ahx]SVGPYSWDDSPQDNYMDS-NH2) | 6.3 ± 0.1 µM | –
2 | CC[C@H](C)[C@H](NC(=O)[C@H](NC(=O)[C@H](Cc1ccccc1)NC(=O)[C@@H](CC(N)=O)NC(=O)[C@H](CO)NC(=O)[C@@H](Cc1ccccc1)NC(=O)[C@H](CCCNC(=N)N)NC(=O)[C@@H](Cc1ccc(O)cc1)NC(=O)CNC(C)=O)C(C)C)C(=O)N[C@H](Cc1c[nH]cn1)C(=O)N[C@@H](Cc1c[nH]c2ccccc12)C(=O)NCC(=O)NCCC(=O)NCC(=O)NCCCCCC(=O)NCC(=O)N[C@@H](CCCCNC(=O)CCCC[C@@H]1SC[C@@H]2NC(=O)N[C@@H]21)C(=O)NCC(=O)NCCCCCC(=O)N[C@H](CO)C(=O)N[C@@H](C(=O)NCC(=O)N1CCC[C@@H]1C(=O)N[C@@H](Cc1ccc(O)cc1)C(=O)N[C@H](CO)C(=O)N[C@@H](Cc1c[nH]c2ccccc12)C(=O)N[C@H](CC(=O)O)C(=O)N[C@@H](CC(=O)O)C(=O)N[C@H](CO)C(=O)N1CCC[C@H]1C(=O)N[C@H](CCC(N)=O)C(=O)N[C@@H](CC(=O)O)C(=O)N[C@H](CC(N)=O)C(=O)N[C@@H](Cc1ccc(O)cc1)C(=O)N[C@H](CCSC)C(=O)N[C@@H](CC(=O)O)C(=O)N[C@H](CO)C(N)=O)C(C)C [H1H3s‐L/D] (Ac-G[dY]R[dF]S[dN]F[dV]I[dH]WG[βAla]G[Ahx]GK(Biotin)G[Ahx][dS][dV]G[dP]Y[dS]W[dD]D[dS]P[dQ]D[dN]Y[dM]D[dS]-NH2) | > 60 µM | –
3 | Ac‐GYRFSNFVIHW‐GB ^b GX ^c G‐K*‐GX‐[CVGPYSWDDSPQDNYMDC]‐NH2 (disulfide) [Peptide H1H3, b12 paratope mimetic peptide presenting heavy chain CDRs H1 and H3, H3 disulfide‐bridged, biotinylated lysine between them] | – | IC50 (HIV‐1NL4–3 [2]): 1.7 µM
4 | CC[C@H](C)[C@H](NC(=O)[C@@H](NC(=O)[C@H](Cc1ccccc1)NC(=O)[C@H](CC(N)=O)NC(=O)[C@H](CO)NC(=O)[C@H](Cc1ccccc1)NC(=O)[C@H](CCCNC(=N)N)NC(=O)[C@H](Cc1ccc(O)cc1)NC(=O)CNC(C)=O)C(C)C)C(=O)N[C@@H](Cc1c[nH]cn1)C(=O)N[C@@H](Cc1c[nH]c2ccccc12)C(=O)NCC(=O)NCCC(=O)NCC(=O)NCCCCCC(=O)NCC(=O)N[C@@H](CCCCNC(=O)CCCC[C@@H]1SC[C@@H]2NC(=O)N[C@@H]21)C(=O)NCC(=O)NCCCCCC(=O)N[C@@H](CO)C(=O)N[C@H](C(=O)NCC(=O)N1CCC[C@H]1C(=O)N[C@@H](Cc1ccc(O)cc1)C(=O)N[C@@H](CO)C(=O)N[C@@H](Cc1c[nH]c2ccccc12)C(=O)N[C@@H](CC(=O)O)C(=O)N[C@@H](CCCCN)C(=O)N[C@@H](CO)C(=O)N1CCC[C@H]1C(=O)N[C@@H](CCC(N)=O)C(=O)N[C@@H](CC(=O)O)C(=O)N[C@@H](CC(N)=O)C(=O)N[C@@H](Cc1ccc(O)cc1)C(=O)N[C@@H](CCSC)C(=O)N[C@@H](CC(=O)O)C(=O)N[C@@H](CO)C(N)=O)C(C)C [H1H3s‐D100^bK] (Ac-GYRFSNFVIHWG[βAla]G[Ahx]GK(Biotin)G[Ahx]SVGPYSWDKSPQDNYMDS-NH2) | – | EC50 (GALV‐RV): 0.63 ± 0.04 µM
5 | CC[C@@H](C)[C@@H](NC(=O)[C@H](NC(=O)[C@@H](Cc1ccccc1)NC(=O)[C@@H](CC(N)=O)NC(=O)[C@@H](CO)NC(=O)[C@@H](Cc1ccccc1)NC(=O)[C@@H](CCCNC(=N)N)NC(=O)[C@@H](Cc1ccc(O)cc1)NC(=O)CNC(C)=O)C(C)C)C(=O)N[C@H](Cc1c[nH]cn1)C(=O)N[C@H](Cc1c[nH]c2ccccc12)C(=O)NCC(=O)NCCC(=O)NCC(=O)NCCCCCC(=O)NCC(=O)N[C@H](CCCCNC(=O)CCCC[C@@H]1SC[C@@H]2NC(=O)N[C@@H]21)C(=O)NCC(=O)NCCCCCC(=O)N[C@H](CO)C(=O)N[C@@H](C(=O)NCC(=O)N1CCC[C@@H]1C(=O)N[C@H](Cc1ccc(O)cc1)C(=O)N[C@H](CO)C(=O)N[C@H](Cc1c[nH]c2ccccc12)C(=O)N[C@H](CC(=O)O)C(=O)N[C@H](CC(=O)O)C(=O)N[C@H](CO)C(=O)N1CCC[C@@H]1C(=O)N[C@H](CCC(N)=O)C(=O)N[C@H](CC(=O)O)C(=O)N[C@H](CC(N)=O)C(=O)N[C@H](Cc1ccc(O)cc1)C(=O)N[C@H](CCSC)C(=O)N[C@H](CC(=O)O)C(=O)N[C@H](CO)C(N)=O)C(C)C [H1H3s‐allD] (Ac-G[dY][dR][dF][dS][dN][dF][dV][dI][dH][dW]G[βAla]G[Ahx]G[dK](Biotin)G[Ahx][dS][dV]G[dP][dY][dS][dW][dD][dD][dS][dP][dQ][dD][dN][dY][dM][dD][dS]-NH2) | 1.9 ± 0.4 µM | –
